Measurements as given in BigSolDB 2.1.

CCCN(CCC)S(=O)(=O)c1ccc(C(=O)O)cc1
solubility (mole fraction) (in MTBE, 283.15 K): 0.00461
solubility (mole fraction) (in MTBE, 288.15 K): 0.00531
solubility (mole fraction) (in MTBE, 293.15 K): 0.00665
solubility (mole fraction) (in MTBE, 298.15 K): 0.00801
solubility (mole fraction) (in MTBE, 303.15 K): 0.00953
solubility (mole fraction) (in MTBE, 308.15 K): 0.0111
solubility (mole fraction) (in MTBE, 313.15 K): 0.0129
solubility (mole fraction) (in MTBE, 318.15 K): 0.0156
solubility (mole fraction) (in MTBE, 323.15 K): 0.0185
solubility (mole fraction) (in acetone, 283.15 K): 0.013
solubility (mole fraction) (in acetone, 288.15 K): 0.0148
solubility (mole fraction) (in acetone, 293.15 K): 0.0176
solubility (mole fraction) (in acetone, 298.15 K): 0.0201
solubility (mole fraction) (in acetone, 303.15 K): 0.0234
solubility (mole fraction) (in acetone, 308.15 K): 0.0268
solubility (mole fraction) (in acetone, 313.15 K): 0.0312
solubility (mole fraction) (in acetone, 318.15 K): 0.035
solubility (mole fraction) (in acetone, 323.15 K): 0.0409
solubility (mole fraction) (in ethanol, 283.15 K): 0.00506
solubility (mole fraction) (in ethanol, 288.15 K): 0.00615
solubility (mole fraction) (in ethanol, 293.15 K): 0.00797
solubility (mole fraction) (in ethanol, 298.15 K): 0.00961
solubility (mole fraction) (in ethanol, 303.15 K): 0.0117
solubility (mole fraction) (in ethanol, 308.15 K): 0.015
solubility (mole fraction) (in ethanol, 313.15 K): 0.0191
solubility (mole fraction) (in ethanol, 318.15 K): 0.023
solubility (mole fraction) (in ethanol, 323.15 K): 0.0279
solubility (mole fraction) (in ethyl acetate, 283.15 K): 0.00382
solubility (mole fraction) (in ethyl acetate, 288.15 K): 0.00459
solubility (mole fraction) (in ethyl acetate, 293.15 K): 0.00548
solubility (mole fraction) (in ethyl acetate, 298.15 K): 0.00659
solubility (mole fraction) (in ethyl acetate, 303.15 K): 0.00821
solubility (mole fraction) (in ethyl acetate, 308.15 K): 0.00992
solubility (mole fraction) (in ethyl acetate, 313.15 K): 0.0118
solubility (mole fraction) (in ethyl acetate, 318.15 K): 0.0138
solubility (mole fraction) (in ethyl acetate, 323.15 K): 0.0164
solubility (mole fraction) (in isobutanol, 283.15 K): 0.00363
solubility (mole fraction) (in isobutanol, 288.15 K): 0.00453
solubility (mole fraction) (in isobutanol, 293.15 K): 0.00573
solubility (mole fraction) (in isobutanol, 298.15 K): 0.00716
solubility (mole fraction) (in isobutanol, 303.15 K): 0.00904
solubility (mole fraction) (in isobutanol, 308.15 K): 0.0108
solubility (mole fraction) (in isobutanol, 313.15 K): 0.013
solubility (mole fraction) (in isobutanol, 318.15 K): 0.0158
solubility (mole fraction) (in isobutanol, 323.15 K): 0.0199
solubility (mole fraction) (in isopropanol, 283.15 K): 0.00627
solubility (mole fraction) (in isopropanol, 288.15 K): 0.00759
solubility (mole fraction) (in isopropanol, 293.15 K): 0.0089
solubility (mole fraction) (in isopropanol, 298.15 K): 0.0106
solubility (mole fraction) (in isopropanol, 303.15 K): 0.0122
solubility (mole fraction) (in isopropanol, 308.15 K): 0.015
solubility (mole fraction) (in isopropanol, 313.15 K): 0.018
solubility (mole fraction) (in isopropanol, 318.15 K): 0.021
solubility (mole fraction) (in isopropanol, 323.15 K): 0.0258
solubility (mole fraction) (in methanol, 283.15 K): 0.00365
solubility (mole fraction) (in methanol, 288.15 K): 0.00485
solubility (mole fraction) (in methanol, 293.15 K): 0.00609
solubility (mole fraction) (in methanol, 298.15 K): 0.00804
solubility (mole fraction) (in methanol, 303.15 K): 0.0105
solubility (mole fraction) (in methanol, 308.15 K): 0.0132
solubility (mole fraction) (in methanol, 313.15 K): 0.0166
solubility (mole fraction) (in methanol, 318.15 K): 0.0202
solubility (mole fraction) (in methanol, 323.15 K): 0.0248
solubility (mole fraction) (in methyl acetate, 283.15 K): 0.00449
solubility (mole fraction) (in methyl acetate, 288.15 K): 0.00544
solubility (mole fraction) (in methyl acetate, 293.15 K): 0.00656
solubility (mole fraction) (in methyl acetate, 298.15 K): 0.00794
solubility (mole fraction) (in methyl acetate, 303.15 K): 0.00945
solubility (mole fraction) (in methyl acetate, 308.15 K): 0.0112
solubility (mole fraction) (in methyl acetate, 313.15 K): 0.0129
solubility (mole fraction) (in methyl acetate, 318.15 K): 0.0152
solubility (mole fraction) (in methyl acetate, 323.15 K): 0.0179
solubility (mole fraction) (in n-butanol, 283.15 K): 0.00744
solubility (mole fraction) (in n-butanol, 288.15 K): 0.0089
solubility (mole fraction) (in n-butanol, 293.15 K): 0.0109
solubility (mole fraction) (in n-butanol, 298.15 K): 0.0131
solubility (mole fraction) (in n-butanol, 303.15 K): 0.0158
solubility (mole fraction) (in n-butanol, 308.15 K): 0.0186
solubility (mole fraction) (in n-butanol, 313.15 K): 0.022
solubility (mole fraction) (in n-butanol, 318.15 K): 0.026
solubility (mole fraction) (in n-butanol, 323.15 K): 0.0303
solubility (mole fraction) (in n-butyl acetate, 283.15 K): 0.00308
solubility (mole fraction) (in n-butyl acetate, 288.15 K): 0.0038
solubility (mole fraction) (in n-butyl acetate, 293.15 K): 0.00474
solubility (mole fraction) (in n-butyl acetate, 298.15 K): 0.00562
solubility (mole fraction) (in n-butyl acetate, 303.15 K): 0.00653
solubility (mole fraction) (in n-butyl acetate, 308.15 K): 0.00773
solubility (mole fraction) (in n-butyl acetate, 313.15 K): 0.00972
solubility (mole fraction) (in n-butyl acetate, 318.15 K): 0.0118
solubility (mole fraction) (in n-butyl acetate, 323.15 K): 0.014
solubility (mole fraction) (in n-pentanol, 283.15 K): 0.00879
solubility (mole fraction) (in n-pentanol, 288.15 K): 0.0103
solubility (mole fraction) (in n-pentanol, 293.15 K): 0.0123
solubility (mole fraction) (in n-pentanol, 298.15 K): 0.0146
solubility (mole fraction) (in n-pentanol, 303.15 K): 0.0171
solubility (mole fraction) (in n-pentanol, 308.15 K): 0.0194
solubility (mole fraction) (in n-pentanol, 313.15 K): 0.0228
solubility (mole fraction) (in n-pentanol, 318.15 K): 0.0264
solubility (mole fraction) (in n-pentanol, 323.15 K): 0.031
solubility (mole fraction) (in n-propanol, 283.15 K): 0.00544
solubility (mole fraction) (in n-propanol, 288.15 K): 0.00656
solubility (mole fraction) (in n-propanol, 293.15 K): 0.00841
solubility (mole fraction) (in n-propanol, 298.15 K): 0.0108
solubility (mole fraction) (in n-propanol, 303.15 K): 0.0135
solubility (mole fraction) (in n-propanol, 308.15 K): 0.0163
solubility (mole fraction) (in n-propanol, 313.15 K): 0.0207
solubility (mole fraction) (in n-propanol, 318.15 K): 0.0246
solubility (mole fraction) (in n-propanol, 323.15 K): 0.0289
